Measurements published in ChEMBL document CHEMBL6092180 (Eur J Med Chem, 2024).
Converted amounts (≈) assume the structure as drawn. The source made the active and inactive calls. No cut-off for these calls is given here.

Key:
Candida albicans [1] = test: Fungicidal activity fluconazole and iodiconazole resistant Candida albicans clinical isolate 17# assessed as decrease in number of fungi at 16 microg/ml measured within 24 hrs by time-kill kinetics assay; format: functional, organism-based; conditions: dose 16.0 µg/ml
Candida albicans [2] = test: Antifungal activity against fluconazole and iodiconazole resistant Candida albicans clinical isolate 17# assessed as inhibition of fungal growth by CLSI M27-A3 guidelines based method; format: functional
Candida albicans [3] = test: Antifungal activity against fluconazole-resistant Candida albicans clinical isolate 100 assessed as inhibition of fungal growth by CLSI M27-A3 guidelines based method; format: functional
Candida albicans [4] = test: Antifungal activity against fluconazole-resistant Candida albicans clinical isolate 632 assessed as inhibition of fungal growth by CLSI M27-A3 guidelines based method; format: functional
Candida albicans [5] = test: Antibiofilm activity against fluconazole-resistant Candida albicans CPCC400616 assessed as inhibition of metabolic activity of biofilm measured after 24 hrs by XTT reduction assay; format: functional
[6] = Cytotoxicity against HUVEC cells assessed as inhibition of cell growth incubated for 72 hrs by MTT assay; format: toxicity, cell-based; conditions: human
Candida albicans [7] = test: Antifungal activity against fluconazole-resistant Candida albicans CaR assessed as inhibition of fungal growth by CLSI M27-A3 guidelines based method; format: functional
Pichia kudriavzevii = test: Antifungal activity against Candida krusei GIM 2.1 assessed as inhibition of fungal growth by CLSI M27-A3 guidelines based method; format: functional
Candida albicans [8] = test: Antibiofilm activity against fluconazole-resistant Candida albicans CPCC400616 assessed as inhibition of metabolic activity of biofilm measured after 6 hrs by XTT reduction assay; format: functional
Candida albicans [9] = test: Antifungal activity against Candida albicans SC5314 assessed as inhibition of fungal growth by CLSI M27-A3 guidelines based method; format: functional
Candida tropicalis = test: Antifungal activity against Candida tropicalis GIM 2.183 assessed as inhibition of fungal growth by CLSI M27-A3 guidelines based method; format: functional
Candida albicans [10] = test: Effect on sterol composition in Candida albicans SC5314 assessed as lanosterol content at 4 microg/ml measured after 16 hrs by GC-MS analysis relative to control; format: functional; conditions: dose 4 µg/ml
Aspergillus fumigatus = test: Antifungal activity against Aspergillus fumigatus cgmcc 3.7795 assessed as inhibition of fungal growth by CLSI M27-A3 guidelines based method; format: functional
Candida albicans [11] = test: Antifungal activity against fluconazole-resistant Candida albicans clinical isolate 904 assessed as inhibition of fungal growth by CLSI M27-A3 guidelines based method; format: functional
Candida albicans [12] = test: Effect on sterol composition in Candida albicans SC5314 assessed as other sterols content at 4 microg/ml measured after 16 hrs by GC-MS analysis (reference value: 1.06 %); format: functional; conditions: dose 4 µg/ml
[13] = Cytotoxicity against human OVCAR-3 cells assessed as inhibition of cell growth incubated for 72 hrs by MTT assay; format: toxicity, cell-based
Candida albicans [14] = test: Effect on sterol composition in Candida albicans SC5314 assessed as eburicol content at 4 microg/ml measured after 16 hrs by GC-MS analysis relative to control; format: functional; conditions: dose 4 µg/ml
Candida albicans [15] = test: Antifungal activity against fluconazole-resistant Candida albicans clinical isolate 901 assessed as inhibition of fungal growth by CLSI M27-A3 guidelines based method; format: functional
Candida albicans [16] = test: Antifungal activity against Candida albicans GIM 2.194 assessed as inhibition of fungal growth by CLSI M27-A3 guidelines based method; format: functional
Candida albicans [17] = test: Fungicidal activity against fluconazole and iodiconazole resistant Candida albicans clinical isolate 17# incubated for 48 hrs by PDA plate based method; format: functional
[18] = Cytotoxicity against HEK293T cells assessed as inhibition of cell growth incubated for 72 hrs by MTT assay; format: toxicity, cell-based, HEK-293T; conditions: human
Candida albicans [19] = test: Effect on sterol composition in Candida albicans SC5314 assessed as obtusifoliol content at 4 microg/ml measured after 16 hrs by GC-MS analysis relative to control; format: functional; conditions: dose 4 µg/ml
[20] = Cytotoxicity against human NCI-H460 cells assessed as inhibition of cell growth incubated for 72 hrs by MTT assay; format: toxicity, cell-based
Candida albicans [21] = test: Antifungal activity against fluconazole-resistant Candida albicans clinical isolate 311 assessed as inhibition of fungal growth by CLSI M27-A3 guidelines based method; format: functional
Candida albicans [22] = test: Inhibition of hyphal formation in fluconazole-resistant Candida albicans CPCC400616 assessed as reduction in invasive ability at 2 microg/ml measured after 4 hrs by inverted microscopic analysis; format: functional, organism-based; conditions: dose 2.0 µg/ml
Candida parapsilosis = test: Antifungal activity against Candida parapsilosis GIM 2.190 assessed as inhibition of fungal growth by CLSI M27-A3 guidelines based method; format: functional; conditions: Lodderomyces parapsilosis
Nakaseomyces glabratus = test: Antifungal activity against Candida glabrata assessed as inhibition of fungal growth by CLSI M27-A3 guidelines based method; format: functional
Candida albicans [23] = test: Effect on sterol composition in Candida albicans SC5314 assessed as 14alpha-demethyllanosterol content at 4 microg/ml measured after 16 hrs by GC-MS analysis (reference value: 1.98 %); format: functional; conditions: dose 4 µg/ml
Cryptococcus neoformans = test: Antifungal activity against Cryptococcus neoformans CGMCC 2.3161 assessed as inhibition of fungal growth by CLSI M27-A3 guidelines based method; format: functional
Candida albicans [24] = test: Effect on sterol composition in Candida albicans SC5314 assessed as ergosterol content at 4 microg/ml measured after 16 hrs by GC-MS analysis (reference value: 96.96 %); format: functional; conditions: dose 4 µg/ml
Candida albicans [25] = test: Fungicidal activity against Candida albicans SC5314 incubated for 48 hrs by PDA plate based method; format: functional
Candida albicans [26] = test: Antifungal activity against fluconazole-resistant Candida albicans clinical isolate 103 assessed as inhibition of fungal growth by CLSI M27-A3 guidelines based method; format: functional

OC(Cn1cncn1)(Cn1cncn1)c1ccc(F)cc1F [FLUCONAZOLE]
Activity (Candida albicans [1]): inactive | MIC80 (Candida albicans [2]): > 64 µg/mL | MIC80 (Candida albicans [3]): > 64 µg/mL | MIC80 (Candida albicans [4]): > 64 µg/mL | MIC50 (Candida albicans [5]): > 32 µg/mL | IC50 at 72 h [6]: > 40 µM | MIC80 (Candida albicans [7]): > 64 µg/mL | MIC80 (Pichia kudriavzevii): 8 µg/mL (≈ 26.1 µM) | MIC50 (Candida albicans [8]): 16 µg/mL (≈ 52.2 µM) | MIC80 (Candida albicans [9]): 0.25 µg/mL (≈ 0.816 µM) | MIC80 (Candida tropicalis): 0.25 µg/mL (≈ 0.816 µM) | Activity (Candida albicans [10]): 9.3% | MIC80 (Aspergillus fumigatus): 64 µg/mL (≈ 209 µM) | MIC80 (Candida albicans [11]): > 64 µg/mL | Activity (Candida albicans [12]): 8.64% | IC50 at 72 h [13]: > 40 µM | Activity (Candida albicans [14]): 60.09% | MIC80 (Candida albicans [15]): > 64 µg/mL | MIC80 (Candida albicans [16]): 0.5 µg/mL (≈ 1.63 µM) | MFC (Candida albicans [17]): > 64 µg/mL | IC50 at 72 h [18]: > 40 µM | Activity (Candida albicans [19]): 14.37% | IC50 at 72 h [20]: > 40 µM | MIC80 (Candida albicans [21]): > 64 µg/mL | inhibition (Candida albicans [22]): inactive | MIC80 (Candida parapsilosis): 1 µg/mL (≈ 3.27 µM) | MIC80 (Nakaseomyces glabratus): 8 µg/mL (≈ 26.1 µM) | Activity (Candida albicans [23]): 3.03% | MIC80 (Cryptococcus neoformans): 4 µg/mL (≈ 13.1 µM) | Activity (Candida albicans [24]): 4.57% | MFC (Candida albicans [25]): > 64 µg/mL | MIC80 (Candida albicans [26]): > 64 µg/mL
